Structures are written as SMILES. pIC50: −log10 of the molar value.

What all share (type): biochemical
One experiment addresses T1, KDM4A (JMJD2A) (Homo sapiens, UniProt O75164).
T1 construct: 1-350; purchased BPS Bioscience, US; host or cells: E. coli
T1 sequence (O75164 1-350): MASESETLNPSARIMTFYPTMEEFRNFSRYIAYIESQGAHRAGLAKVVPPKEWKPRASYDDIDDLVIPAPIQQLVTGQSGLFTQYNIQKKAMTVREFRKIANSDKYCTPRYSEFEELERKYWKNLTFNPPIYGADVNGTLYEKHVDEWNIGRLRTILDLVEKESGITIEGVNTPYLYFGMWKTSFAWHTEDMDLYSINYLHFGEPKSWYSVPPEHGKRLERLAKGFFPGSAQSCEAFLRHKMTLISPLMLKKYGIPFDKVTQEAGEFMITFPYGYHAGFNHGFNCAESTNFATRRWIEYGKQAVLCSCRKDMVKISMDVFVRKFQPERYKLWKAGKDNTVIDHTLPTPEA
Put plainly: Histone lysine demethylase AlphaLISA assay, KDM4A. The conditions noted are these: read-out: KDM4A HDME Inhibition IC50. Here is the method: (§1) Assays are performed analogously to the protocol described by PerkinElmer (Roy et al. PerkinElmer Technical Note: AlphaLISA #12, April 2011)
(§2) Enzymes are dissolved in enzyme buffer and incubated for 10 min before being added to 3% DMSO solutions of compounds in enzyme buffer. Incubated for another 10 minutes, before substrate solution is added and the reaction mixture is incubated at room temperature. 10 μL acceptor beads, suspended in Epigenetic Buffer (Perkin Elmer AL008) from stock, are added and the suspension is incubated in the dark at room temperature, before a suspension of streptavidin donor beads (Perkin Elmer 6760002) in Epigenetic Buffer is added. After incubation at room temperature in the dark the plates are read.
(§3) BK9M3: Biotin-ARTKQTAR(KMe3)STGGKAPRKQ-NH2 (Caslo, Denmark) […]
(§4) Substrate Solution: Substrate, 25 μM L-Asc, and 10 μM α-KG in Buffer A.
A general note: Alpha assays give light when donor and acceptor beads are brought close together.

Another experiment addresses T2, KDM3A (JMJD1A) (Homo sapiens, UniProt Q9Y4C1).
T2 construct: 2-end; purchased BPS Bioscience, US; host or cells: Bac (baculovirus system)
T2 sequence (Q9Y4C1 2-1321 limits assumed): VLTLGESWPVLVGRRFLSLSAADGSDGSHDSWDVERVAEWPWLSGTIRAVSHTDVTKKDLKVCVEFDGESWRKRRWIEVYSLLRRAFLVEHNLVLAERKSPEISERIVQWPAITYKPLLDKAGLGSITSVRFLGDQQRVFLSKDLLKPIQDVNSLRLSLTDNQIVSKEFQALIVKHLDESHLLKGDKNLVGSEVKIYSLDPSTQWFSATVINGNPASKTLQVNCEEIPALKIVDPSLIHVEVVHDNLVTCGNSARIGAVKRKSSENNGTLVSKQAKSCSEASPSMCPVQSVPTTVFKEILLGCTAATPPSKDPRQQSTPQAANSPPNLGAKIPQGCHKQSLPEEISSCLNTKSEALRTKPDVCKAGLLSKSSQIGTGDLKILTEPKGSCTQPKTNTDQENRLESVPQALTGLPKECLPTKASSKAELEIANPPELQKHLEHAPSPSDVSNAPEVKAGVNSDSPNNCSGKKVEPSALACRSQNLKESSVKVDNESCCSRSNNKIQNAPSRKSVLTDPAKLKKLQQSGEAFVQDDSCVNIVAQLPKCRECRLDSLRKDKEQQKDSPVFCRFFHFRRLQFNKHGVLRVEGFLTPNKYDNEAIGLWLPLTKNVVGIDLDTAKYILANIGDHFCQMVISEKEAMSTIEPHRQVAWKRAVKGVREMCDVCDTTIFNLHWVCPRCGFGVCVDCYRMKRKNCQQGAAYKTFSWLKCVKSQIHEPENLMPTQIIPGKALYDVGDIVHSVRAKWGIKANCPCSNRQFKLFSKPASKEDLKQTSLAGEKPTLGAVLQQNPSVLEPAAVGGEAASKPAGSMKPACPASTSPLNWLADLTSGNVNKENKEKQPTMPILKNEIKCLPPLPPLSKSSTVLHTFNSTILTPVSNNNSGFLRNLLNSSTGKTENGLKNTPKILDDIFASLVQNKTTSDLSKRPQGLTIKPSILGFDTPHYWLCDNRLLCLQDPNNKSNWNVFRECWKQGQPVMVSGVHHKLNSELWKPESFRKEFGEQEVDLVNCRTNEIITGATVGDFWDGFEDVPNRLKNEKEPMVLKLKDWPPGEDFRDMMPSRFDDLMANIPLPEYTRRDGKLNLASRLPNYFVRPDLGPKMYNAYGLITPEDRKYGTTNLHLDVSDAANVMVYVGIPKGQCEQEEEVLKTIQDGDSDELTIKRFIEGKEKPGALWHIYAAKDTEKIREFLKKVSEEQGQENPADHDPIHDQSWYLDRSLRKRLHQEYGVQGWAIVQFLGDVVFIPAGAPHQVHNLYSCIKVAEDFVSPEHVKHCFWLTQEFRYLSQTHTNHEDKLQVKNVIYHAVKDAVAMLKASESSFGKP
Put plainly: Histone lysine demethylase AlphaLISA assay, KDM3A. To be noted: read-out: KDM3 A HDME Inhibition IC50. As to the method:
as §1
Enzymes are dissolved in enzyme buffer and incubated for 10 min before being added to 3% DMSO solutions of compounds in enzyme buffer. Incubated for another 10 minutes, before substrate solution is added and the reaction mixture is incubated at room temperature. 10 μL acceptor beads, suspended in Epigenetic Buffer (Perkin Elmer AL008) from stock, are added and the suspension is incubated in the dark at room temperature, before a suspension of streptavidin donor beads (Perkin Elmer 6760002) in Epigenetic Buffer is added. After incubation at room temperature in the dark the plates are read. […]
BK9M2: Biotin-ARTKQTAR(KMe2)STGGKAPRKQ-NH2 (AnaSpec 64359) […]
as §4

The next experiment concerns the target T3, KDM4B (JMJD2B) (Homo sapiens, UniProt O94953).
T3 construct: 2-500; purchased BPS; host or cells: Bac (baculovirus system)
T3 sequence (O94953 2-500): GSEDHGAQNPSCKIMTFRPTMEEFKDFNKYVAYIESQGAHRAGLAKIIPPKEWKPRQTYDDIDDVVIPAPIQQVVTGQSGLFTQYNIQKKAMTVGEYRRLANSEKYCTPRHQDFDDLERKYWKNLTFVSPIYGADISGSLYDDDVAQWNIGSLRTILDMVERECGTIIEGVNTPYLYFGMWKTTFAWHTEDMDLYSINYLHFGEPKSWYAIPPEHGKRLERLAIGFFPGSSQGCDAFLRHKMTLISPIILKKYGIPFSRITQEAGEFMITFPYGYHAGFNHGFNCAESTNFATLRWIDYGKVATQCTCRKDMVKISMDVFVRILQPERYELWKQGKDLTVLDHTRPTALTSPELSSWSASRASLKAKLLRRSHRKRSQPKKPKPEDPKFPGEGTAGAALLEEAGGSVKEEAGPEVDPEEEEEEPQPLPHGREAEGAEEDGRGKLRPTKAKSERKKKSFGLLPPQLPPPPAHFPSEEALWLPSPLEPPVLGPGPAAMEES
In words: Histone lysine demethylase AlphaLISA assay, KDM4B. To be noted: read-out: KDM4B HDME Inhibition IC50. As to the method: as §1, §2, §3, §4

Usually pIC50 stands for −log10 of the IC50, conventionally taken in molar units. For the compound `CCN(CC)C(=O)CNCc1cc(/C=N/CCC2CCCCC2)ccn1` [Compound 57, 2-[({4-[[(2-cyclohexylethyl)imino]-methyl]pyridin-2-yl}methyl)amino]-N,N-diethylacetamide], the pIC50 on KDM4A (JMJD2A) is 5.60 to 6.60; at KDM3A (JMJD1A) it was < 5.60; on KDM4B (JMJD2B), > 6.60.

For the compound `CN1CCN(C(=O)CNCc2cc(C=O)ccn2)CC1` [Compound 103, 2-({[2-(4-methylpiperazin-1-yl)-2-oxoethyl]-amino}methyl)-pyridine-4-carbaldehyde], the pIC50 on KDM4A (JMJD2A), at KDM3A (JMJD1A) and at KDM4B (JMJD2B) was < 5.60 each time.

With `CN(C)CCCNCc1cc(CN)ccn1` [Compound 3, [2-({[3-(dimethylamino)propyl]-amino}methyl)pyridin-4-yl]methanamine], the pIC50 at KDM4A (JMJD2A) and at KDM4B (JMJD2B) was > 6.60 in each case.

Regarding `CCN(CCN(C)C)C(=O)CNCc1cc(C=O)ccn1` [Compound 101], the pIC50 on KDM4A (JMJD2A) is > 6.60; at KDM3A (JMJD1A), < 5.60; at KDM4B (JMJD2B), > 6.60.

As for `CN(C)CCCCCNCc1cc(/C=N/C2CC2)ccn1` [Compound 47, N-{[2-({[5-(dimethylamino)-pentyl]amino}-methyl)pyridin-4-yl]methylidene}-cyclopropanamine], the pIC50 on KDM4A (JMJD2A) is < 5.60; at KDM3A (JMJD1A), < 5.60; on KDM4B (JMJD2B), 5.60 to 6.60.

Take `CON=Cc1ccnc(CNCCCN(C)C)c1` [Compound 64, [3-(dimethylamino)-propyl]({4-[(methoxyimino)-methyl]pyridin-2-yl}methyl)amine]: the pIC50 on KDM4A (JMJD2A) was 5.60 to 6.60; on KDM3A (JMJD1A), < 5.60; at KDM4B (JMJD2B), > 6.60.

Turning to `CN(C)CCCCNCc1cc(CNC2CC2)ccn1` [Compound 10, N-{[2-({[4-(dimethylamino)butyl]-amino}methyl)pyridin-4-yl]methyl}-cyclopropanamine], the pIC50 at KDM4A (JMJD2A), at KDM3A (JMJD1A) and at KDM4B (JMJD2B) was < 5.60 in each case.

As to `CN(C)CC1CCC(CNCc2cc(C=O)ccn2)CC1` (stereo not drawn) [Compound 97, 2-{[({4-[(dimethylamino)-methyl]cyclohexyl}-methyl)amino]-methyl}pyridine-4-carbaldehyde], the pIC50 on KDM4A (JMJD2A) and on KDM3A (JMJD1A) was < 5.60 throughout.

For `CN1CCC(CNCc2cc(C=O)ccn2)CC1` [Compound 100, 2-({[(1-methyl-piperidin-4-yl)methyl]amino}-methyl)pyridine-4-carbaldehyde], the pIC50 on KDM3A (JMJD1A) was < 5.60.

On to `CN(C)CCNCc1cc(C=O)ccn1` [Compound 110, 2-({[2-(dimethylamino)-ethyl]amino}methyl)-pyridine-4-carbaldehyde], for which the negative logarithm of the IC50 (pIC50) on KDM4A (JMJD2A) is 5.60 to 6.60; at KDM3A (JMJD1A), < 5.60.

With `CN(C)CCCCNCc1cc(C=O)ccn1` [Compound 108, 2-({[4-(dimethylamino)-butyl]amino}methyl)-pyridine-4-carbaldehyde], the pIC50 at KDM4A (JMJD2A) and on KDM3A (JMJD1A) was < 5.60 in each case.

`CN(C)C/C=C\CNCc1cc(C=O)ccn1` [Compound 99, 2-({[(2Z)-4-(dimethylamino)-but-2-en-1-yl]amino}methyl)-pyridine-4-carbaldehyde]: the pIC50 at KDM4A (JMJD2A) and at KDM3A (JMJD1A) was < 5.60 in each case.

In the case of `CN(C)C(=O)CNCc1cc(CNCC#N)ccn1` [Compound 13, 2-{[(4-{[(cyanomethyl)amino]-methyl}pyridin-2-yl)methyl]amino}-N,N-dimethylacetamide], the pIC50 at KDM4A (JMJD2A) and on KDM4B (JMJD2B) was < 5.60 each time.

Take `CCN1CCCC1CNC(=O)CNCc1cc(C=O)ccn1` (stereo not drawn) [Compound 104, N-[(1-ethylpyrrolidin-2-yl)methyl]-2-{[(4-formylpyridin-2-yl)methyl]amino}-acetamide]: the pIC50 on KDM3A (JMJD1A) is < 5.60; at KDM4B (JMJD2B) it was > 6.60.

In the case of `CN(C)C(=O)CNCc1cc(/C=N\C2CC2)ccn1` [Compound 33], the pIC50 is > 6.60 on KDM4A (JMJD2A) and < 5.60 at KDM4B (JMJD2B).

For `CCN(CCN(C)C)C(=O)CNCc1cc(/C=N/CCC2CCCCC2)ccn1` [Compound 63, 2-[({4-[[(2-cydohexylethyl)-imino]methyl]pyridin-2-yl}methyl)amino]-N-[2-(dimethylamino)-ethyl]-N-ethylacetamide], the pIC50 was < 5.60 on KDM4A (JMJD2A) and 5.60 to 6.60 at KDM4B (JMJD2B).

As to `O=Cc1ccnc(CNCCCN2CCCC2)c1` [Compound 111, 2-({[3-(pyrrolidin-1-yl)propyl]amino}-methyl)pyridine-4-carbaldehyde], the pIC50 was < 5.60 on KDM3A (JMJD1A) and 5.60 to 6.60 on KDM4B (JMJD2B).

Turning to `CCN(CC)CCCCN(Cc1cc(C=O)ccn1)C(=O)C(F)(F)F` [Compound 115, N-[4-(diethylamino)butyl]-2,2,2-trifluoro-N-[(4-formylpyridin-2-yl)methyl]acetamide], the pIC50 at KDM4A (JMJD2A) is 5.60 to 6.60; at KDM3A (JMJD1A), < 5.60.

Regarding `CCN(CC)CCCCNC(=O)CNCc1cc(C=O)ccn1` [Compound 112, N-[4-(diethylamino)-butyl]-2-{[(4-formylpyridin-2-yl)methyl]amino}-acetamide], the figures for the negative logarithm of the IC50 (pIC50) at KDM4A (JMJD2A) and on KDM3A (JMJD1A) were > 6.60 and < 5.60, respectively.

As to `CN(CCCNCc1cc(/C=N/C2CC2)ccn1)Cc1ccccc1` [Compound 41, N-({2-[({3-[benzyl(methyl)amino]-propyl}amino)methyl]-pyridin-4-yl}methylidene)-cyclopropanamine], the pIC50 at KDM4A (JMJD2A) and at KDM4B (JMJD2B) was > 6.60 in each case.

For the origin of these results see US9650339B2, “Inhibitors of histone demethylases” (Gilead Sciences, Inc., priority 2013, dated 2017).
